From ChEMBL document CHEMBL1151958, “Improving metabolic stability by glycosylation: bifunctional peptide derivatives that are opioid receptor agonists and neurokinin 1 receptor antagonists” (J Med Chem, 2009) come the findings set out here.

Data set [1] addresses Mu-type opioid receptor (Rattus norvegicus, UniProt P33535). Nature of the data set: Displacement of [3H]DAMGO from rat mu opioid receptor expressed in mouse HN9.10 cell membrane. It counts as cell membranes. On the technique in general: In a radioligand displacement assay an active substance lowers the binding of a labelled ligand.
Data set [2] concerns the target Substance-P receptor (Homo sapiens, UniProt P25103). As to the kind of experiment: Displacement of [3H]substance P from human NK1 receptor expressed in CHO cell membrane. It counts as cell membranes.
In data set [3] the target is Delta-type opioid receptor (Homo sapiens, UniProt P41143). Nature of the data set: Displacement of [3H]DPDPE from human delta opioid receptor expressed in mouse HN9.10 cell membrane. It counts as cell membranes.
Data set [4] can be described thus: Metabolic stability in rat plasma assessed as half life at 37 degC. It counts as ADME, cell-free.
For data set [5], the target named is Substance-P receptor (Rattus norvegicus, UniProt P14600). As to the kind of experiment: Displacement of [3H]substance P from rat NK1 receptor expressed in CHO cell membrane. It counts as cell membranes.

pIC50: −log10 of the molar value.

Mu-type opioid receptor, sequence (P33535 whole entry): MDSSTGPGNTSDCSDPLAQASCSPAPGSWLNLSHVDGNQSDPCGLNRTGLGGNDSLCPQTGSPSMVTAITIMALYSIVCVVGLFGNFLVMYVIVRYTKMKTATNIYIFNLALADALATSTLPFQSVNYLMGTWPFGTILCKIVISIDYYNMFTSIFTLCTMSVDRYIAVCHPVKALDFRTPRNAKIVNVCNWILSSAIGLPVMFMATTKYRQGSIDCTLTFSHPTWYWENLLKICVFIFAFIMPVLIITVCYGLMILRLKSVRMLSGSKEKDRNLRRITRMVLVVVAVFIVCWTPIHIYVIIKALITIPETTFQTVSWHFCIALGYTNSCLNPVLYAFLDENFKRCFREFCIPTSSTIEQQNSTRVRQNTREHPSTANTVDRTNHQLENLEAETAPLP
Substance-P receptor (Homo sapiens, UniProt P25103), sequence (P25103 whole entry): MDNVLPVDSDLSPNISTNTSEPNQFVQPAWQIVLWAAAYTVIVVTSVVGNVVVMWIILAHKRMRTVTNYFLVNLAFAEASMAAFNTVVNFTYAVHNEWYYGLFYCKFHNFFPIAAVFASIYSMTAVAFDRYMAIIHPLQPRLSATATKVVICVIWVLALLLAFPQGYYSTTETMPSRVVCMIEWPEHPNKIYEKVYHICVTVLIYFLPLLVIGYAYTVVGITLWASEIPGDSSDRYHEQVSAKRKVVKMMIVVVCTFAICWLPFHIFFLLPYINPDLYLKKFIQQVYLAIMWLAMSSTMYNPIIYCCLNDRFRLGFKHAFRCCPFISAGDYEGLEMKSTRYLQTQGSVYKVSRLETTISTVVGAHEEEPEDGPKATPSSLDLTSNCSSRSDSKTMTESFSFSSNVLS
Delta-type opioid receptor, sequence (P41143 whole entry): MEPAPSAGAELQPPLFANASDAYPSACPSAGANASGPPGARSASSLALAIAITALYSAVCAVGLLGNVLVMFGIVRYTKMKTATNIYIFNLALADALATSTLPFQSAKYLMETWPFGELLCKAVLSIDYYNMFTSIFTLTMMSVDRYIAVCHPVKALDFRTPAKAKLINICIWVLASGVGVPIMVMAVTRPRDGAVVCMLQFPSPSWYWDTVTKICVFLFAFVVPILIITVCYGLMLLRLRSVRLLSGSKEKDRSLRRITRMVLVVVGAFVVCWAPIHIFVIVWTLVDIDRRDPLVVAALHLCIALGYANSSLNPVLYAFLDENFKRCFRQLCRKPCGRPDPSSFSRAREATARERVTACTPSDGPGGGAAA
Substance-P receptor (Rattus norvegicus, UniProt P14600), sequence (P14600 whole entry): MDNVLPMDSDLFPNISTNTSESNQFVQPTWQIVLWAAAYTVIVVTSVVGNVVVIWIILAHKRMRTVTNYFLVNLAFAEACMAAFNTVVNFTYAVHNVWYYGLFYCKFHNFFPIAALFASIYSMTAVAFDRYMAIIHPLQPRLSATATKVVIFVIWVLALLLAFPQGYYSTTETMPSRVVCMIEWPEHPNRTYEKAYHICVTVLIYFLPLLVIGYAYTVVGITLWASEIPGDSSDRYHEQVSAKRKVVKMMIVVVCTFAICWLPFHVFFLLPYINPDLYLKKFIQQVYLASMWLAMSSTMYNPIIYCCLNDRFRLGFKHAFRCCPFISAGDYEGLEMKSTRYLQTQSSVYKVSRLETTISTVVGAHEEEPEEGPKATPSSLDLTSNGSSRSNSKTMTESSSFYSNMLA

As for `CCCC[C@H](NC(=O)[C@H](Cc1ccccc1)NC(=O)CNC(=O)[C@@H](C)NC(=O)[C@@H](N)Cc1ccc(O)cc1)C(=O)N[C@@H](CO[C@@H]1O[C@H](CO)[C@@H](O)[C@H](O)[C@H]1O)C(=O)N[C@@H](CC(C)C)C(=O)N[C@@H](Cc1c[nH]c2ccccc12)C(=O)NCc1cc(C(F)(F)F)cc(C(F)(F)F)c1`, the values for the pIC50 in data set [1] and in data set [2] were 5.15 and 8.38, respectively.
Turning to `CCCC[C@H](NC(=O)[C@H](Cc1ccccc1)NC(=O)CNC(=O)[C@@H](C)NC(=O)[C@@H](N)Cc1ccc(O)cc1)C(=O)N1CCC[C@H]1C(=O)N[C@@H](CO[C@@H]1O[C@H](CO)[C@@H](O)[C@H](O)[C@H]1O)C(=O)N[C@@H](Cc1c[nH]c2ccccc12)C(=O)NCc1cc(C(F)(F)F)cc(C(F)(F)F)c1`, the pIC50 in data set [3] was 8.10; in data set [1], 7.77; in data set [5], 7.30. Moreover, the half-life in data set [4] is above 6 h.
Turning to `CCCC[C@H](NC(=O)[C@H](Cc1ccccc1)NC(=O)CNC(=O)[C@@H](C)NC(=O)[C@@H](N)Cc1ccc(O)cc1)C(=O)N1CCC[C@H]1C(=O)N[C@@H](CC(C)C)C(=O)N[C@@H](Cc1c[nH]c2ccccc12)C(=O)NCc1cc(C(F)(F)F)cc(C(F)(F)F)c1`, the pIC50 in data set [3] is 8.67; in data set [2] it was 11.57. The half-life in data set [4] was above 6 h.
Turning to `CC(C)C[C@H](NC(=O)[C@@H]1CCCN1C(=O)[C@H](CO[C@@H]1O[C@H](CO)[C@@H](O)[C@H](O)[C@H]1O)NC(=O)[C@H](Cc1ccccc1)NC(=O)CNC(=O)[C@@H](C)NC(=O)[C@@H](N)Cc1ccc(O)cc1)C(=O)N[C@@H](Cc1c[nH]c2ccccc12)C(=O)NCc1cc(C(F)(F)F)cc(C(F)(F)F)c1`, the pIC50 was 6.91 in data set [3], 6.12 in data set [1], 8.35 in data set [5] and 12.21 in data set [2].

The term pIC50 denotes the IC50 on a negative log10 scale, so that one unit is a factor of ten. A low value points to a large IC50. A word on the half-life: it is how long it takes for the measured level to halve.
